Experimental data taken from patent US20240254121A1, “ALKYLAMIDE SUBSTITUTED, ANNULATED IMIDAZOLES AND USE THEREOF AS INSECTICIDES” (Bayer Aktiengesellschaft, priority 2021, published 2024).

How the values were obtained:
Type in all cases: in vivo
[1] = system: adult mosquitoes Aedes aegypti strain MONHEIM; test: Aedes aegypti test (AEDSAE surface treatment & contact assay); conditions: 24 hours after contact, read-out: efficacy (mortality); for mortality at 4 mg/m2: surface concentration 4 mg/m^2, 30 minutes exposure; for mortality at 20 mg/m2: surface concentration 20 mg/m^2, 30 minutes exposure
Method in brief: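 Test compound dissolved in acetone (2 mg/ml) with 2000 ppm rapeseed oil methyl ester, applied to glazed tile and dried. Adult Aedes aegypti MONHEIM placed on surface for 30 min exposure; % mortality scored 24 h after contact.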

[2] = system: adult flies Musca domestica strain WHO-N; test: Musca domestica test (MUSCDO surface treatment & contact assay); conditions: 24 hours after contact, read-out: efficacy (mortality); for mortality at 4 mg/m2: surface concentration 4 mg/m^2, 30 minutes exposure; for mortality at 20 mg/m2: surface concentration 20 mg/m^2, 30 minutes exposure
Method in brief: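 Compound dissolved in acetone (2 mg/ml) with 2000 ppm rapeseed oil methyl ester and dried onto a glazed tile. Adult flies exposed to the treated surface for 30 min. Percent mortality scored 24 h after contact.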

[3] = system: fall armyworm larvae (Spodoptera frugiperda); test: Spodoptera frugiperda spray test; conditions: 168 h, maize leaf sections, after 7 days
Method in brief: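 Maize leaf sections sprayed with compound in acetone/dimethylformamide, diluted in water with 1000 ppm alkylarylpolyglycol ether emulsifier. Dried sections infested with fall armyworm larvae. Mortality (%) scored after 7 days; 100% = all caterpillars killed.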

[4] = system: cattle tick larvae (Rhipicephalus microplus); test: Rhipicephalus (Boophilus) microplus in-vitro contact test, larval cattle tick (strain Parkhurst, resistant against synthetic pyrethroids); conditions: 1 μg/cm^2 (=100 g/ha), after 48 hours, read-out: efficacy (larvae dead or moribund)
Method in brief: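 Larvae (20–50 per tube) were exposed for 48 h at 27 °C and 85% relative humidity to dried acetone residues lining glass tubes, where 900 ppm corresponds to 5 μg/cm^2. Loss of negative geotaxis defined dead or moribund larvae, expressed as percent efficacy.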

[5] = system: adult mosquitoes Culex quinquefasciatus strain P00; test: Culex quinquefasciatus test (CULXFA surface treatment & contact assay); conditions: surface concentration 20 mg/m^2, 30 minutes exposure, 24 hours after contact, read-out: efficacy (mortality)
Method in brief: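 Compound dissolved in acetone (2 mg/ml) with 2000 ppm RME and applied to glazed tile; after acetone evaporation, adults exposed to dried surface for 30 min. Percent mortality scored 24 h after contact.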

[6] = system: green peach aphid (Myzus persicae); test: Myzus persicae spray test; conditions: foliar, 120 h, 100 g/ha, Chinese cabbage leaf disks, after 5 days
Procedure: Myzus persicae—Spray Test • Solvent: 78.0 parts by weight acetone • 1.5 parts by weight dimethylformamide • Emulsifier: alkylarylpolyglycol ether
(§1) To produce a suitable preparation of active compound, 1 part by weight of active compound is mixed with the stated amount of solvents and is diluted with water, containing an emulsifier concentration of 1000 ppm, to the desired concentration. Further test concentrations are prepared by dilution with emulsifier containing water.
Chinese cabbage (Brassica pekinensis) leaf disks infected with all instars of the green peach aphid (Myzus persicae), are sprayed with a preparation of the active ingredient of the desired concentration.
After 5 days mortality in % is determined. 100% means all aphids have been killed and 0% means none of the aphids have been killed.

[7] = system: larvae of the southern green stink bug (Nezara viridula); test: Nezara viridula spray test; conditions: 96 h, barley plants, after 4 days
Method in brief: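 Barley plants sprayed with compound in acetone/dimethylformamide, diluted in water with 1000 ppm alkylarylpolyglycol ether emulsifier, then infested with Nezara viridula larvae. Percent mortality read after 4 days (100% = all killed, 0% = none).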

[8] = system: larvae of the banded cucumber beetle (Diabrotica balteata); test: Diabrotica balteata spray test; conditions: 168 h, 100 g/ha (=32 μg/well), wheat seeds, after 7 days, read-out: efficacy (seedling growth)
Method in brief: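 Germinated wheat seedlings (5 per well, on agar) sprayed with compound in acetone/dimethylformamide diluted in water with 1000 ppm emulsifier, then infested with 10-20 Diabrotica balteata larvae. Efficacy (%) scored after 7 days: 100% = seedling growth as untreated, uninfested control; 0% = no seedlings grown.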

[9] = system: adult Blattella germanica strain PAULINIA; test: whole plant or invertebrate; conditions: read-out: efficacy (mortality)
Procedure: Blattella germanica Test (BLTTGE Surface Treatment & Contact Assay) • Solvent: Aceton+2000 ppm rapeseed oil methyl ester (RME)
In order to produce a sufficient, active ingredient containing solution it is necessary to solve the test compound in the solvent-mix (acetone at 2 mg/ml/RME 2000 ppm). This solution is pipetted onto a glazed tile and after evaporation of the acetone, adult animals of the species Blattella germanica strain PAULINIA are placed onto the dried surface. The exposure time is 30 minutes.
Mortality in percent (%) is determined 24 hours after contact of the insects to the treated surface. 100% mortality means that all tested insects are dead, whereas 0% means that no insect died.

[10] = system: adult brown dog ticks (Rhipicephalus sanguineus); test: Rhipicephalus sanguineus in-vitro contact test with adult brown dog ticks; conditions: 1 μg/cm^2 (=100 g/ha), after 48 hours
Procedure: Rhipicephalus sanguineus—In-Vitro Contact Tests with Adult Brown Dog Ticks
(§2) 9 mg compound is solved in 1 mL acetone and diluted with acetone to the desired concentration. 250 μL of the test solution is filled in 25 mL glass test tubes and homogeneously distributed on the inner walls by rotation and tilting on a shaking device (2 h at 30 rpm). With a compound concentration of 900 ppm, an inner surface of 44.7 cm^2 and a homogeneous distribution, a dose of 5 μg/cm^2 is achieved.
After the solvent has evaporated, each test tube is filled with 5-10 adult brown dog ticks (Rhipicephalus sanguineus), closed with a perforated lid and incubated in a lying position at room temperature and relative humidity. After 48 hours efficacy is determined. The ticks are patted on the ground of the tubes and are incubated on a heating plate at 45-50° C. for at most 5 minutes. Immotile or uncoordinated moving ticks, which are not able to escape the heat by climbing upwards, are marked as dead or moribund.
An efficacy of 100% means all ticks are dead or moribund; 0% means no ticks are dead or moribund.

[11] = system: adult cat fleas (Ctenocephalides felis); test: Ctenocephalides felis in-vitro contact test, adult cat flea; conditions: 1 μg/cm^2 (=100 g/ha), after 48 hours
Procedure: Ctenocephalides felis—In-Vitro Contact Tests Adult Cat Flea
as §2
After the solvent has evaporated, each test tube is filled with 5-10 adult cat fleas (Ctenocephalides felis), closed with a perforated lid and incubated in a lying position at room temperature and relative humidity.
After 48 hours efficacy is determined. The fleas are patted on the ground of the tubes and are incubated on a heating plate at 45-50° C. for at most 5 minutes. Immotile or uncoordinated moving fleas, which are not able to escape the heat by climbing upwards, are marked as dead or moribund.
An efficacy of 100% means all fleas are dead or moribund; 0% means no fleas are dead or moribund.

[12] = system: brown planthopper (Nilaparvata lugens); test: Nilaparvata lugens spray test; conditions: 96 h, rice plants, after 4 days
Procedure: Nilaparvata lugens—Spray Test • Solvent: 78.0 parts by weight of acetone • 1.5 parts by weight of dimethylformamide • Emulsifier: alkylarylpolyglycol ether
as §1
Rice plants (Oryza sativa) are sprayed with a preparation of the active ingredient of the desired concentration and the plants are infested with the brown planthopper (Nilaparvata lugens).
After 4 days mortality in % is determined. 100% means all planthoppers have been killed and 0% means none of the planthoppers have been killed.

CC(NC(=O)c1cc(OC(F)(F)F)cc(OC(F)(F)F)c1)c1nc2cccnc2n1-c1ncccn1 (centres unmarked) [Example I-31]
100%: mortality at 100 g/ha [3] | pest or weed control at 1 µg/cm2, 100 g/ha [4] | mortality at 500 g/ha [7] | pest or weed control at 32 µg/disc, 100 g/ha [8]
90%: mortality at 100 g/ha [6]
80 to 100%: mortality at 4 mg/m2 [1] | mortality at 20 mg/m2 [1] | mortality at 4 mg/m2 [2] | mortality at 20 mg/m2 [2] | mortality at 20 mg/m2 [5] | mortality at 20 mg/m2 [9]

C[C@H](NC(=O)c1cc(C(F)(F)F)cc(C(F)(F)F)c1)c1nc2cccnc2n1-c1ccc(C#N)cn1 [Example I-15]
100%: mortality at 100 g/ha [3] | pest or weed control at 1 µg/cm2, 100 g/ha [4] | pest or weed control at 32 µg/disc, 100 g/ha [8]
90%: mortality at 100 g/ha [6] | mortality at 500 g/ha [12]
80%: efficacy (ticks dead or moribund) [10] | efficacy (fleas dead or moribund) [11]
80 to 100%: mortality at 4 mg/m2 [1] | mortality at 20 mg/m2 [1] | mortality at 4 mg/m2 [2] | mortality at 20 mg/m2 [2] | mortality at 20 mg/m2 [5]
